Measured values reported in BigSolDB 2.1.

O=C(O)C[C@H](O)C(=O)O
solubility (mole fraction)
Settings	278.15 K	283.15 K	288.15 K	293.15 K	298.15 K	303.15 K	308.15 K	313.15 K	318.15 K	323.15 K
in acetone	0.136	0.145	0.153	0.163	0.17	0.18	0.189	0.201	0.211	0.225
in acetonitrile	0.045	0.0485	0.0523	0.0559	0.0608	0.0646	0.0684	0.0733	0.0783	0.0838
in ethanol	0.11	0.126	0.145	0.166	0.187	0.207	0.232	0.256	0.283	0.314
in ethyl acetate	0.0017	0.0029	0.005	0.0083	0.0134	0.0213	0.0333	0.0516	0.0763	0.113
in isopropanol	0.117	0.136	0.157	0.178	0.203	0.228	0.256	0.285	0.314	0.345
in n-butanol	0.0832	0.0948	0.109	0.124	0.14	0.159	0.18	0.201	0.225	0.25
in n-propanol	0.0917	0.103	0.118	0.134	0.153	0.172	0.193	0.215	0.238	0.264
